From paper PMC2893400 (Biomedical chromatography : BMC, 2010)

Experiments:
[1] = Stability of stock solutions in methanol at 4°C; type: physicochemical; settings: stock solution in methanol stored at 4°C, up to 7 days
[2] = Stability post extraction, reconstituted in methanol at room temperature; type: physicochemical; settings: kept at room temperature

| SMILES | Degradation of stock solution [1] | Degradation reconstituted in methanol after recovery [2] |
| --- | --- | --- |
| CC(C)C[C@H]1C(=O)N2CCC[C@H]2[C@]2(O)O[C@](NC(=O)[C@@H]3C=C4c5cccc6[nH]c(Br)c(c56)C[C@H]4N(C)C3)(C(C)C)C(=O)N12 [BCT, bromocriptine] | began to degrade significantly after 3 days | – |
| O=C(CCCN1CC=C(n2c(=O)[nH]c3ccccc32)CC1)c1ccc(F)cc1 [DRO, droperidol] | no degradation after 7 days | no degradation |
| O=C(CCCN1CCCN(c2ccc(Cl)cc2)CC1)c1ccc(F)cc1 [DAL, 4-[4-(4-Chlorophenyl)-1,4-diazepan-1-yl]-1-(4-fluorophenyl) butan-1-one] | no degradation after 7 days | no degradation |
